Usually melting point stands for the temperature of the solid-liquid transition.

SMILES strings stand for the structures.

As to `CCCCCCCCCCCCCCO` [1-tetradecanol], the melting point was determined as 40 °C. `CC(C)(Oc1ccc(Cl)cc1)C(=O)O` [2-(4-chlorophenoxy)isobutyric acid] returned a melting point of 120 °C. On to `O=C1NC(=O)C(c2ccccc2)(c2ccccc2)N1` [Phenytoin], for which the melting point is 286 °C. In the case of `Clc1ccc(Cl)nn1` [3,6-dichloropyridazine], the melting point was 68 °C.

As for `CCn1cc(C(=O)O)c(=O)c2cc(F)c(N3CCNCC3)cc21` [norfloxacin], the melting point is 220 °C. The figure for `O=CN1CCOCC1` [4-formylmorpholine] is 22 °C. The figure for `CCCC(C)O` (configuration not stated) [Pentan-2-ol] is -50 °C; for `N#CCc1csc2ccc(Cl)cc12` [5-chlorobenzo[b]thiophene-3-acetonitrile] it is 134 °C; for `ClCCl` [dichloromethane] it is -95 °C.

On to `CC1(C)C2CCC1(C)C(O)/C2=C\CC(=O)O` (configuration not stated), for which the melting point is 52 °C. For `COc1cccc(B(O)O)c1OC` [2,3-dimethoxybenzeneboronic acid], the melting point was found to be 69 °C. As for `Cc1ccccc1N` [o-Toluidine], the melting point is -16 °C. The figure for `CCCCCCCCNCCCCCCCC` [di-n-octylamine] is 14 °C; for `NNC(=O)NN` [carbohydrazide] it is 156 °C.

For `O=C(O)CCCCC=C(c1ccccc1)c1cccnc1` [isbogrel], the melting point was found to be 114 °C. The figure for `O=C(O)C=Cc1ccco1` [b-2-Furylacrylic Acid] is 133 °C. The figure for `CCN(CC)c1ccc(N=O)cc1` [N,N-diethyl-4-nitrosoaniline] is 82 °C; for `O=C1OC(c2ccccc2)(c2ccccc2)C=C1O` [3-hydroxy-5,5-diphenylfuran-2(5H)-one] it is 127 °C; for `O=C(O)c1cc(=O)[nH]c(=O)[nH]1` [Orotic Acid] it is 346 °C. To `CC1=CC=C(C)C2=C(C)C=CC(C)=C1C2` [2,5,7,10-tetramethylbicyclo[4.4.1]undeca-1,3,5,7,9-pentaene] belongs 72 °C; to `C1CC[C@H]2CCCC[C@H]2C1` [cis-Decahydronaphthalene], -43 °C. For the compound `FC(F)(F)c1ccccc1Cl` [2-chlorobenzotrifluoride], the melting point is -6 °C. To `OB(O)c1cc(-c2ccccc2)cc(-c2ccccc2)c1` [1,1':3',1''-terphenyl-5'-boronic acid] belongs 294 °C. `COC(=O)[C@H](CCC(=O)O)NC(=O)OCc1ccccc1` [N-benzyloxycarbonyl-l-glutamic acid 1-methyl ester] registered a melting point of 67 °C. `COC(=O)c1ccc([N+](=O)[O-])cc1` [methyl 4-nitrobenzoate] returned a melting point of 96 °C.

Consider `O=[N+]([O-])c1cc(Cl)[n+]([O-])c(Cl)c1` [2,6-dichloro-4-nitropyridine n-oxide], for which the melting point stood at 178 °C. To `Clc1ccc(cc1)NC3=CC4=Nc2ccccc2N(C4=C/C3=NC(C)C)c5ccc(Cl)cc5` [clofazimine] belongs 211 °C. The figure for `COc1cc(O)cc(OC)c1` [3,5-dimethoxyphenol] is 47 °C; for `O=C(O)CC1Sc2ccccc2NC1=O` (configuration not stated) [3,4-dihydro-3-oxo-2h-1,4-benzothiazine-2-acetic acid] it is 188 °C; for `OCc1cccc(B(O)O)c1` [3-(hydroxymethyl)benzeneboronic acid] it is 96 °C.

Compound `O=C(O)/C=C/c1ccccc1` [cinnamic acid] returned a melting point of 133 °C.

In turn, `OB(O)c1cccc(Cl)c1Cl` [2,3-dichlorobenzeneboronic acid] returned a melting point of 238 °C.

`CC1=CCCCC1` [1-methylcyclohexene]: the melting point is -120 °C. The figure for `Cn1c(=O)c2c(ncn2CC2OCCO2)n(C)c1=O` [doxofylline] is 144 °C; for `O=C(O)CCc1cccc(O)c1` [3-(3-hydroxyphenyl)propionic acid] it is 112 °C. For the compound `N#Cc1ccc(CO)cc1` [p-cyano_benzyl_alcohol], the melting point stood at 42 °C. The figure for `NC12CC3CC(CC(C3)C1)C2` [1-adamantylamine] is 180 °C. `O=C(Oc1ccccc1C(=O)O)c1ccccc1O` [salicylsalicylic acid] gave a melting point of 135 °C.

Turning to `OCC(CO)(CO)CO` [pentaerythritol], the melting point was determined as 262 °C.

`Clc1c2ccccc2cc2ccccc12` [9-Chloroanthracene]: the melting point stood at 104 °C. To `O=C(O)/C=C/c1ccc(C(F)(F)F)cc1` [trans-4-(trifluoromethyl)cinnamic acid] belongs 232 °C; to `O=C1CN(C(=O)OCc2ccccc2)CCN1` [4-benzyloxycarbonyl-2-piperazinone], 120 °C; to `Cc1ccc(/C=C(\C(N)=O)c2nc3ccccc3s2)cc1`, 149 °C.

Regarding `O=C(/C=C/c1ccccc1)c1ccc(Cl)cc1` [4'-chlorochalcone], the melting point amounted to 99 °C. To `CCOC(=O)c1cc(C(=O)OCC)c([N+](=O)[O-])cc1[N+](=O)[O-]` [diethyl 4,6-dinitrobenzene-1,3-dicarboxylate] belongs 124 °C. To `OCC=Cc1ccccc1` [cinnamyl_alcohol] belongs 34 °C; to `O=C(Oc1ccc([N+](=O)[O-])cc1)c1ccccc1` [4-nitrophenyl benzoate], 143 °C; to `CCCC(=O)c1cc2cc(Br)ccc2oc1=O` [6-bromo-3-butyrylcoumarin], 164 °C. The figure for `O=C1CN(/N=C/c2ccc([N+](=O)[O-])o2)C(=O)N1` [Nitrofurantoin] is 268 °C; for `O=C(O)Cc1ccccc1Nc1c(Cl)cccc1Cl` [Diclofenac] it is 157 °C; for `CCCCCCCCCCCC(C)=O` [Tridecan-2-one] it is 24 °C. `c1cc2c3c(cccc3c1)CC2` [Acenaphthene]: the melting point is 95 °C. To `OC1[C@H]2CC[C@@H]1[C@H]1C=C[C@@H]2O1` (stereo partly drawn) [(1R,2S,5R,6S)-9-oxatricyclo[4.2.1.1~2,5~]dec-7-en-10-ol] belongs 122 °C; to `CCCCOC(=O)c1ccc(O)cc1` [butyl p-hydroxybenzoate], 69 °C; to `C/C(=N\Nc1cccc2cccnc12)c1cccs1` [8-{(2E)-2-[1-(2-Thienyl)ethylidene]hydrazino}quinoline], 160 °C. As for `CCOc1ccc(NC(=O)CN)cc1` [Phenokoll], the melting point was determined as 101 °C. `Cc1nnc2n1-c1ccc(Cl)cc1C(c1ccccc1Cl)=NC2` [triazolam] yielded a melting point of 234 °C.

In turn, `COc1ccc(C=CC(=O)c2ccccc2)c(OC)c1` [2,4-Dimethoxychalcone] returned a melting point of 70 °C.

For the compound `ClC(Cl)Cl` [trichloromethane], the melting point was -63 °C. To `CC(=O)OCC(=O)[C@@]1(O)CC[C@H]2[C@@H]3CCC4=CC(=O)CC[C@]4(C)[C@H]3C(=O)C[C@@]21C` [cortisone acetate] belongs 222 °C; to `CCc1cc2cc(OC)c(OC)cc2c(Cc2ccccc2)n1` [moxaverine], 78 °C. Compound `Cn1nnnc1S` [5-mercapto-1-methyltetrazole] gave a melting point of 127 °C.
